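1) Cells in 96-well plates. 2) Compound, 48 h, 5 concentrations. 3) Linear interpolation between surrounding doses. 4) Unreached endpoint = highest concentration. Abbreviation: GI50, concentration required for 50% inhibition of growth.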 Activity calls are given as the source filed them. Cut-off read from the data, not from the text of the source: active = GI50 up to about 1.1 µM and inactive = higher.
Legend:
Test in all cases: DTP human tumour cell line panel, 48 h
NCI/ADR-RES = system: NCI/ADR-RES
SF-539 = system: SF-539
SN12C = system: SN12C
RPMI-8226 = system: RPMI-8226
HCC 2998 = system: HCC 2998
Malme-3M = system: Malme-3M
A498 = system: A498
UO-31 = system: UO-31
MDA-N = system: MDA-N
OVCAR-5 = system: OVCAR-5
TK-10 = system: TK-10
SK-MEL-2 = system: SK-MEL-2
SNB-75 = system: SNB-75
MOLT-4 = system: MOLT-4
SW-620 = system: SW-620
SK-OV-3 = system: SK-OV-3
Hs-578T = system: Hs-578T
T47D = system: T47D

Measured: GI50

O=C(OCC1OC(c2nn[nH]n2)C(OC(=O)c2ccccc2)C1OC(=O)c1ccccc1)c1ccccc1 (configuration not stated)
inactive: NCI/ADR-RES > 100 µM | SF-539 > 100 µM | SN12C > 100 µM | RPMI-8226 18.6 µM | HCC 2998 > 100 µM | Malme-3M > 100 µM | A498 > 100 µM | UO-31 > 100 µM | MDA-N > 100 µM | OVCAR-5 > 100 µM | TK-10 > 100 µM | SK-MEL-2 > 100 µM | SNB-75 57 µM | MOLT-4 > 100 µM | SW-620 > 100 µM | SK-OV-3 > 100 µM

Nc1ncc2c(n1)-c1ccccc1OC2N1CCOCC1 (configuration not stated)
inactive: NCI/ADR-RES > 100 µM | SF-539 > 100 µM | SN12C > 100 µM | RPMI-8226 > 100 µM | Hs-578T > 100 µM | Malme-3M > 100 µM | UO-31 > 100 µM | MDA-N > 100 µM | OVCAR-5 > 100 µM | TK-10 > 100 µM | SK-MEL-2 > 100 µM | SNB-75 59.7 µM | MOLT-4 > 100 µM | SW-620 > 100 µM | SK-OV-3 > 100 µM

CC(O)(CNS(=O)(=O)c1ccccc1)c1ccccc1 (configuration not stated)
inactive: NCI/ADR-RES > 100 µM | SN12C > 100 µM | RPMI-8226 > 100 µM | Hs-578T > 100 µM | Malme-3M > 100 µM | A498 > 100 µM | UO-31 > 100 µM | MDA-N > 100 µM | T47D > 100 µM | OVCAR-5 > 100 µM | TK-10 > 100 µM | SK-MEL-2 > 100 µM | SNB-75 > 100 µM | SW-620 > 100 µM | SK-OV-3 > 100 µM

CCN(CC)CCNc1n[n+]([O-])c2ccccc2[n+]1[O-]
inactive: NCI/ADR-RES 22.9 µM | SF-539 9.27 µM | SN12C 3.91 µM | RPMI-8226 4.48 µM | Hs-578T 28.6 µM | HCC 2998 2.07 µM | Malme-3M 6.76 µM | UO-31 19 µM | MDA-N 9.73 µM | T47D 5.18 µM | OVCAR-5 13.2 µM | TK-10 11.3 µM | MOLT-4 2.02 µM | SW-620 12 µM | SK-OV-3 4 µM

O=C1/C(=C/c2ccccc2)CCc2ccccc21
inactive: NCI/ADR-RES 28.4 µM | SF-539 16 µM | SN12C 21.9 µM | RPMI-8226 3.11 µM | Hs-578T 19.8 µM | HCC 2998 16.3 µM | Malme-3M 16.6 µM | A498 16.9 µM | UO-31 14.6 µM | MDA-N 16.2 µM | OVCAR-5 16.8 µM | TK-10 15.2 µM | SNB-75 17.3 µM | MOLT-4 12.2 µM | SW-620 13.9 µM | SK-OV-3 25.6 µM

O=[N+]([O-])c1cc(-[n+]2cc([O-])on2)ccc1F
inactive: NCI/ADR-RES 21.2 µM | SN12C 16.7 µM | RPMI-8226 8.97 µM | Hs-578T 26.7 µM | HCC 2998 14.4 µM | Malme-3M 14.7 µM | UO-31 3.58 µM | MDA-N 16.1 µM | T47D 2.49 µM | OVCAR-5 16.5 µM | TK-10 18.4 µM | SK-MEL-2 15.6 µM | SNB-75 13.7 µM | SW-620 18.4 µM | SK-OV-3 20.4 µM

From ChEMBL document CHEMBL1201862, “PubChem BioAssay data set” (2004)
